We go through 22 compounds from patent US9968620B2, “Methods of treating lymphoma using thienotriazolodiazepine compounds” (ONCOETHIX GmbH, priority 2014, dated 2018).

pIC50, pKi: −log10 of the molar value. Counter-ions that a name gives are not always drawn.

Experiment [1] concerns the target JAK-3 (Homo sapiens, UniProt P52333). As to conditions: cited from earlier work.
Experiment [2] has as its target SYK (Homo sapiens, UniProt P43405). As to conditions: cited from earlier work.
For experiment [3], the target named is Hck (Homo sapiens, UniProt P08631). As to conditions: cited from earlier work.
Hck, sequence (P08631 whole entry, species assumed): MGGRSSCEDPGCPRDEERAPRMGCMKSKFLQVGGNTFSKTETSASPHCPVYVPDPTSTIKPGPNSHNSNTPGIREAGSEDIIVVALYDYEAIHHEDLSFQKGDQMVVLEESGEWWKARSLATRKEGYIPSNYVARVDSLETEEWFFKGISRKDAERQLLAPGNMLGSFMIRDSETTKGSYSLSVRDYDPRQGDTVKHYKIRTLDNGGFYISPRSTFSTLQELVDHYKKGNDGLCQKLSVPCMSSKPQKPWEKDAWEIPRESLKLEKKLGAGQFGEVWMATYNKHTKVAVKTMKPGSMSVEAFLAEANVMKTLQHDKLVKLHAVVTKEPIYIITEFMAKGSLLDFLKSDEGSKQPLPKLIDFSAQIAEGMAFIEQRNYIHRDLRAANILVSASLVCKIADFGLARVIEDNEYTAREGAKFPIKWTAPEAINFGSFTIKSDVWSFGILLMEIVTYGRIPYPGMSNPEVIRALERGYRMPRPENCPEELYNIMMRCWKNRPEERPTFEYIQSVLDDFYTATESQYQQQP
In experiment [4] the target is JAK-1 (Homo sapiens, UniProt P23458). As to conditions: cited from earlier work.
JAK-1, sequence (P23458 whole entry): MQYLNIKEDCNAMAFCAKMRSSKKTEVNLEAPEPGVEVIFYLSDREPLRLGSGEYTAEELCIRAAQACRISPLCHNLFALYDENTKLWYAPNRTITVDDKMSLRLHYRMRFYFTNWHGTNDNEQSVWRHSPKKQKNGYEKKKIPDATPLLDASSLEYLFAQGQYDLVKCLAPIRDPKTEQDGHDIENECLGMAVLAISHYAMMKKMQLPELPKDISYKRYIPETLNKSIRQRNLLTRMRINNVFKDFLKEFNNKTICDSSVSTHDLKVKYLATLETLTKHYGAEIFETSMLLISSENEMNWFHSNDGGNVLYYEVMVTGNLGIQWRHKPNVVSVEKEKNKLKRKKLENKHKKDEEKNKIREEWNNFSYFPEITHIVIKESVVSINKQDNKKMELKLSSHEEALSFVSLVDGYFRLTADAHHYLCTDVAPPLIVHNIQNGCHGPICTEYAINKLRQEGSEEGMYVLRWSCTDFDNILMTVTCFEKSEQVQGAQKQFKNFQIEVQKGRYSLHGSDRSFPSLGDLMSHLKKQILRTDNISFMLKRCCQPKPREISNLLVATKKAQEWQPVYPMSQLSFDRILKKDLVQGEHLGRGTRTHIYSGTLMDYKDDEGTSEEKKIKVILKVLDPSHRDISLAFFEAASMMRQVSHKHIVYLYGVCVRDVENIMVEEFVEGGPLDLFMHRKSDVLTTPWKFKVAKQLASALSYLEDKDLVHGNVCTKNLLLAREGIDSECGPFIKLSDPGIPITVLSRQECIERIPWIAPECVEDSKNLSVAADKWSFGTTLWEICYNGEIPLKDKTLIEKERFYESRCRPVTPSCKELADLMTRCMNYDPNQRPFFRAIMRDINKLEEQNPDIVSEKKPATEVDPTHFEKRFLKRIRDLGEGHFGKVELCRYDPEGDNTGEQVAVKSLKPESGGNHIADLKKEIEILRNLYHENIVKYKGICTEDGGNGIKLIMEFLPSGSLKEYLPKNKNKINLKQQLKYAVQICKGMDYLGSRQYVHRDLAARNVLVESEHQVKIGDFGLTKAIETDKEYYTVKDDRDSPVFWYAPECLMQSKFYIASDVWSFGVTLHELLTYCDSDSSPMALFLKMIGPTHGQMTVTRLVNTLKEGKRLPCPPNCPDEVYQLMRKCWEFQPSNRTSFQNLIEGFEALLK
In experiment [5] the target is JAK-2 (Homo sapiens, UniProt O60674). As to conditions: cited from earlier work.
The target of experiment [6] is IR kinase (Homo sapiens, UniProt P06213). The conditions noted are these: cited from earlier work.
Experiment [7] addresses EGFR kinase (Homo sapiens, UniProt P00533). As to conditions: cited from earlier work.
Experiment [8] deals with HDAC. The conditions noted are these: cited from earlier work.
Experiment [9] relates to lymphoma cell lines (2-5 cell lines). Briefly: Synergy of compound (1-1) with other agents, MTT, Chou-Talalay combination index. It is filed as cell-based. The conditions noted are these: 72 h; for combination effect with compound (1-1): Chou-Talalay; for Chou-Talalay combination index (CI), median / Chou-Talalay combination index (CI), range: in combination with compound (1-1).

The target in experiment [10] is FKBP12 (Homo sapiens, UniProt P62942). The conditions noted are these: cited from earlier work.
FKBP12, sequence (P62942 whole entry, species assumed): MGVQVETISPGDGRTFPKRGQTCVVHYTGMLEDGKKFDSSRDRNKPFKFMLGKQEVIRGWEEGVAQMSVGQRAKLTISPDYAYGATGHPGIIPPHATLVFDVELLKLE
Experiment [11] relates to PI3K/mTOR. The conditions noted are these: cited from earlier work.
The test system of experiment [12] is Akt phosphorylation on T308. The conditions noted are these: cited from earlier work.
Experiment [13] concerns Akt phosphorylation on S473. As to conditions: cited from earlier work.
Experiment [14] relates to PDGFR. As to conditions: cited from earlier work.
The test system of experiment [15] is pAktS473, pGSK3βS9, pS6, pMAPK, pAktT308. As to conditions: cited from earlier work.
Experiment [16] has as its target PI3Kβ (p110β) (Homo sapiens, UniProt P42338). As to conditions: cited from earlier work.
Experiment [17] addresses PI3Kγ (p110γ) (Homo sapiens, UniProt P48736). As to conditions: cited from earlier work.

PI3Kβ (p110β), sequence (P42338 whole entry, species assumed): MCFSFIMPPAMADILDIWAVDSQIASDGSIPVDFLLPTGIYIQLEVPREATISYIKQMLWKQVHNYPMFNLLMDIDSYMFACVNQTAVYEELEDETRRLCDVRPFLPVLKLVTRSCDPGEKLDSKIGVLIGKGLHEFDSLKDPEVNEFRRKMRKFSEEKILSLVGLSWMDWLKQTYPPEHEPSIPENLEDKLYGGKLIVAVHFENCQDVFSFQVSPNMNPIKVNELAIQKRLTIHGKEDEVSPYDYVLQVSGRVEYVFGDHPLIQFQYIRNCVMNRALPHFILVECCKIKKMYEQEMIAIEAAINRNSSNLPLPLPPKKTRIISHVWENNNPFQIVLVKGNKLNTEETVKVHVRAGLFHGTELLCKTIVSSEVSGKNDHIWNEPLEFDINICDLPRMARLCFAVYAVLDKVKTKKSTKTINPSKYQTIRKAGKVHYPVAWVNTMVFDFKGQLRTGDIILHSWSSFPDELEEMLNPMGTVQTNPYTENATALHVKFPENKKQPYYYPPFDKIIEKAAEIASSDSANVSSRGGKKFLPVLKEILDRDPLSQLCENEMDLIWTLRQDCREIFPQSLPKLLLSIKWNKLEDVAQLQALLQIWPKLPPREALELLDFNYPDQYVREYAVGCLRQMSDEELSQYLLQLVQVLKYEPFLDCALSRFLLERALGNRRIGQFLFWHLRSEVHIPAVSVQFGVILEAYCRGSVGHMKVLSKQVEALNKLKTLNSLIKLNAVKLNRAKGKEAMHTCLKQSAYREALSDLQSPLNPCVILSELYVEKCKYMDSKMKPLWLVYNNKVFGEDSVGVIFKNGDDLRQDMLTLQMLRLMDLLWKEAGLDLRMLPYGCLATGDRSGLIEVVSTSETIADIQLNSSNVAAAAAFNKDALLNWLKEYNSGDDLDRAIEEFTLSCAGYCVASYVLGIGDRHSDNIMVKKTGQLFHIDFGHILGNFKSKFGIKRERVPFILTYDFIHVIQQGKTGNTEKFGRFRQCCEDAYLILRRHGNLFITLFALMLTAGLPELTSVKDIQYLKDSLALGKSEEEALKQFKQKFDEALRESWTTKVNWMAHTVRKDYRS
PI3Kβ (p110β), sequence (P27986 whole entry partner, species assumed): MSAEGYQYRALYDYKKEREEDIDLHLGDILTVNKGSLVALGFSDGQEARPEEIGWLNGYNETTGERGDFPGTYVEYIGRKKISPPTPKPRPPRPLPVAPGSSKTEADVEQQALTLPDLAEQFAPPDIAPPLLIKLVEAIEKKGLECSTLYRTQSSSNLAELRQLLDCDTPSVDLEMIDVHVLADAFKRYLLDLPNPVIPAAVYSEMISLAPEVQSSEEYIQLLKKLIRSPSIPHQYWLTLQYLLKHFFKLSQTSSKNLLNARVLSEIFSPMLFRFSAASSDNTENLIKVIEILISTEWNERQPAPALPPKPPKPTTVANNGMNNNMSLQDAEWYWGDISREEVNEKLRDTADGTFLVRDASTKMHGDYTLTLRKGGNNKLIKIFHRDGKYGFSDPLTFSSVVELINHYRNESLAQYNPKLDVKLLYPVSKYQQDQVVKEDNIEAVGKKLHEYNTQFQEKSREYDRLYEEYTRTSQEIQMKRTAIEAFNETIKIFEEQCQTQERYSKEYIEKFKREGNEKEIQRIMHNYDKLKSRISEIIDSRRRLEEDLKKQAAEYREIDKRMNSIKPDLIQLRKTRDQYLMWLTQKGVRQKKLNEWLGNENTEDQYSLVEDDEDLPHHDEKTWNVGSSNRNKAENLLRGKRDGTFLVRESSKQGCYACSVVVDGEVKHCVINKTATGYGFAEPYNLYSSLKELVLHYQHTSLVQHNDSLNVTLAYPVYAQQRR
PI3Kγ (p110γ), sequence (P48736 whole entry, species assumed): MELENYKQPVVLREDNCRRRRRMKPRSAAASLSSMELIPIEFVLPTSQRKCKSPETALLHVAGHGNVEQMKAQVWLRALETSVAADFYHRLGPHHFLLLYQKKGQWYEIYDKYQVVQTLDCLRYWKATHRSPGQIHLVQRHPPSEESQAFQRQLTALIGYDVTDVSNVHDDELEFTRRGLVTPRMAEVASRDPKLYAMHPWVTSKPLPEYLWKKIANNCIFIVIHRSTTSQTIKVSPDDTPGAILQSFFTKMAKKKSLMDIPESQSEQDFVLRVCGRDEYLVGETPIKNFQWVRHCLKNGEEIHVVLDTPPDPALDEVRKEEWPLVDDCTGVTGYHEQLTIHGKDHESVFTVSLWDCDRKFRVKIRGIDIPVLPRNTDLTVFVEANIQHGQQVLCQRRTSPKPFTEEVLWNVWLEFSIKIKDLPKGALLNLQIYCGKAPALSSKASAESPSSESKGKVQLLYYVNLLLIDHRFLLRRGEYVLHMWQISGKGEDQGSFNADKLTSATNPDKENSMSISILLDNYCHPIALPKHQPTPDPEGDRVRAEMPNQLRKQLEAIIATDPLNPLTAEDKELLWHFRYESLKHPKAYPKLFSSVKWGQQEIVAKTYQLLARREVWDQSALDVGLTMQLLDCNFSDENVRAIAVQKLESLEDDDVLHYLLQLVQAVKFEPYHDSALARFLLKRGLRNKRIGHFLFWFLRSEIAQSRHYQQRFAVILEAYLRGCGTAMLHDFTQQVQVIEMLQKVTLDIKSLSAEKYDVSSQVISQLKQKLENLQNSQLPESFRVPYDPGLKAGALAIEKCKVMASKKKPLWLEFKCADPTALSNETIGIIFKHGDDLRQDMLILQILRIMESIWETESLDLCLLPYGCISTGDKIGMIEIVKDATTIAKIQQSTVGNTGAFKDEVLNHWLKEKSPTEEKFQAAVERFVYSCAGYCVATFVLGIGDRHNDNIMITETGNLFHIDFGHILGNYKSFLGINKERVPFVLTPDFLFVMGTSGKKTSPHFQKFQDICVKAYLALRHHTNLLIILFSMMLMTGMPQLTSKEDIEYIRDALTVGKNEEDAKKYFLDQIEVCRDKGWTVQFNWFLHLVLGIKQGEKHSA

As usually defined, the pIC50 is −log10 of the IC50, conventionally taken in molar units. On to `C/C(O)=C(\C#N)C(=O)Nc1cc(Br)ccc1Br`, for which the pIC50 in [1], in experiment [2], in experiment [3], in [4], in experiment [5] and in [6] was under 3.52 each time. In addition, in experiment [7], the pIC50 is under 3.52.
Turning to `CC(C)[C@H](C(=O)Nc1ccc(C(=O)NO)cc1)c1ccccc1` [AR-42], the pIC50 in [8] is 7.52.
Turning to `CN(C)c1ccc(C(=O)NCCCCCCC(=O)NO)cc1` [Compound M344], in experiment [8], the pIC50 is 7.00.
As for `CO[C@H]1C[C@@H]2CC[C@@H](C)[C@@](O)(O2)C(=O)C(=O)N2CCCC[C@H]2C(=O)O[C@H]([C@H](C)C[C@@H]2CC[C@@H](OCCO)[C@H](OC)C2)CC(=O)[C@H](C)/C=C(\C)[C@@H](O)[C@@H](OC)C(=O)[C@H](C)C[C@H](C)/C=C/C=C/C=C/1C` [Everolimus], in experiment [9], the “combination effect with compound (1-1)” value is “Synergy”; the “Chou-Talalay combination index (CI), median” value is reported as 0.1; the “Chou-Talalay combination index (CI), range” value is given as 0.1-0.2. For the same compound, the negative-log IC50 (pIC50) in experiment [10] was 8.62 to 8.80.
With `CCN(CC)Cc1ccc2cc(COC(=O)Nc3ccc(C(=O)NO)cc3)ccc2c1` [ITF2357], in experiment [8], the pIC50 is 7.80 to 8.12.
As for `O=C(/C=C/c1ccc(CN(CCO)CCc2c[nH]c3ccccc23)cc1)NO` [LAQ824], in experiment [8], the pIC50 is 7.49.
Turning to `Cn1c(/C=C/C(=O)NO)ccc1/C=C/C(=O)c1cccc(F)c1` [MC1568], the pIC50 in experiment [8] is 6.70.
Take `COc1ccc(-c2ccc3ncc4c(c3c2)n(-c2ccc(N3CCNCC3)c(C(F)(F)F)c2)c(=O)n4C)cn1` [NVP-BGT226]: the pIC50 in experiment [11] was 9.00.
For the compound `COc1ccc(-c2cc3c(C)nc(N)nc3n([C@H]3CC[C@H](OCCO)CC3)c2=O)cn1` [PF-04691502], the pIC50 in experiment [12] was 8.12; in [13], 8.42.
As to `Nc1ncnc2c1c(-c1cnc3[nH]ccc3c1)nn2C1CCCC1` [PP-121, 1-Cyclopentyl-3-(1H-pyrrolo[2,3-b]p-yridin-5-yl)-1H-pyrazolo[3,4-d]pyrimidin-4-amine], the pIC50 in [14] was 8.70.
For the compound `COc1ccc(COc2cc3oc(=O)c4cc(C(C)O)ccc4c3cc2OC)cc1` (centres unmarked) [Palomid 529], the “effect on phosphorylation of pAktS473, pGSK3βS9, pS6, pMAPK, pAktT308” value in experiment [15] is “both the mTORCl and mTORC2 complexes, reduces phosphorylation of pAktS473, pGSK3βS9, and pS6 but neither pMAPK nor pAktT308. Phase 1”.
For `CCCCc1nc2cc(/C=C/C(=O)NO)ccc2n1CCN(CC)CC` [SB939], the negative logarithm of the IC50 (pIC50) in [8] is 6.85 to 7.40.
Take `CCCC(CCC)C(=O)O` [Valproic acid sodium salt]: in experiment [8], the pIC50 is 3.40.
With `O=C(CCCCCCC(=O)Nc1ccccc1)NO` [Vorinostat, suberoylanilide hydroxamic acid], in experiment [9], the “combination effect with compound (1-1)” value is listed as “Synergy”; the “Chou-Talalay combination index (CI), median” value worked out at 0.5; the “Chou-Talalay combination index (CI), range” value is recorded as 0.3-0.6.
Regarding `CC1=C(/C=C/C(C)=C/C=C/C(C)=C/C(=O)O)C(C)(C)CCC1` [all-trans retinoic acid], the “combination effect with compound (1-1)” value in [9] is recorded as “Synergy”.
Still for that read-out and setting: the entry for `Cn1c(CCCC(=O)O)nc2cc(N(CCCl)CCCl)ccc21` [bendamustine, 4-[5-[Bis(2-chloroethyl)amino]-1-methylbenzimidazol-2-yl]butanoic acid] is “Additive effects”.
`COc1cccc2c1C(=O)c1c(O)c3c(c(O)c1C2=O)C[C@@](O)(C(=O)CO)C[C@@H]3O[C@H]1C[C@H](N)[C@H](O)[C@H](C)O1` [doxorubicin, (7S,9S)-7-[(2R,4S,5S,6S)-4-amino-5-hydroxy-6-methyloxan-2-yl]oxy-6,9,11-trihydroxy-9-(2-hydroxyacetyl)-4-methoxy-8,10-dihydro-7H-tetracene-5,12-dione]: in [9], the “combination effect with compound (1-1)” value was “Additive effects”; the “Chou-Talalay combination index (CI), median” value is 0.83; the “Chou-Talalay combination index (CI), range” value is 0.7-0.96.
As to `C=CC(=O)N1CCC[C@@H](n2nc(-c3ccc(Oc4ccccc4)cc3)c3c(N)ncnc32)C1` [ibrutinib], the “combination effect with compound (1-1)” value in experiment [9] is “Synergy”. Moreover, in [9] (in ABC-DLBCL), the “Chou-Talalay combination index (CI), median” value is given as 0.04 and the “Chou-Talalay combination index (CI), range” value is listed as 0.02-0.1.
With `CC[C@H](Nc1ncnc2[nH]cnc12)c1nc2cccc(F)c2c(=O)n1-c1ccccc1` [idelalisib], in experiment [9], the “combination effect with compound (1-1)” value was “Synergy”; the “Chou-Talalay combination index (CI), median” value stood at 0.5; the “Chou-Talalay combination index (CI), range” value is listed as 0.04-2.4.
On to `Nc1cccc2c1CN(C1CCC(=O)NC1=O)C2=O` (centres unmarked) [lenalidomide], for which, in [9], the “combination effect with compound (1-1)” value is on record as “Synergy” and the “Chou-Talalay combination index (CI), median” value worked out at 0.7.
In general, pKi refers to the negative decadic logarithm of the Ki, by convention in mol/L. GSK2126458: the figures for the pKi in experiment [16] and in [17] were 9.89 and 10.62, respectively.
Turning to “rituximab: agent combined with compound (1-1) in the synergy test”, in experiment [9], the “combination effect with compound (1-1)” value is “Synergy”; the “Chou-Talalay combination index (CI), median” value was 0.5; the “Chou-Talalay combination index (CI), range” value is listed as 0.4-0.5.
